Source: ChEMBL document CHEMBL2424578, “Synergistic effects of berberines with antibiotics on clinical multi-drug resistant isolates of methicillin-resistant Staphylococcus aureus (MRSA)” (2013)
≈ marks a conversion by molar mass, not a printed value.

Columns and labels:
Type in all cases: functional
Staphylococcus aureus [1] = experiment: Antibacterial activity against SCCmec type 3 genotype-positive and methicillin-resistant Staphylococcus aureus clinical isolates after 24 hrs by broth microdilution method
Staphylococcus aureus [2] = experiment: Antibacterial activity against SCCmec type 3 genotype-positive and methicillin-resistant Staphylococcus aureus clinical isolates after 24 hrs by chequerboard method in presence of levofloxacin
Staphylococcus aureus [3] = experiment: Antibacterial activity against SCCmec type 3 genotype-positive and methicillin-resistant Staphylococcus aureus clinical isolates after 24 hrs by chequerboard method in presence of cefazolin
Staphylococcus aureus [4] = experiment: Antibacterial activity against SCCmec type 3 genotype-positive and methicillin-resistant Staphylococcus aureus clinical isolates after 24 hrs by chequerboard method in presence of azithromycin
Staphylococcus aureus [5] = experiment: Antibacterial activity against SCCmec type 3 genotype-positive and methicillin-resistant Staphylococcus aureus clinical isolates after 24 hrs by chequerboard method in presence of ampicillin

SMILES | MBC (Staphylococcus aureus [1]) | FICI50 (Staphylococcus aureus [2]) | FICI90 (Staphylococcus aureus [2]) | fractional inhibitory concentration index (FICI) (Staphylococcus aureus [2]) | FICI50 (Staphylococcus aureus [3]) | FICI90 (Staphylococcus aureus [3]) | fractional inhibitory concentration index (FICI) (Staphylococcus aureus [3]) | FICI50 (Staphylococcus aureus [4]) | FICI90 (Staphylococcus aureus [4]) | fractional inhibitory concentration index (FICI) (Staphylococcus aureus [4]) | FICI50 (Staphylococcus aureus [5]) | FICI90 (Staphylococcus aureus [5]) | fractional inhibitory concentration index (FICI) (Staphylococcus aureus [5]) | MIC (Staphylococcus aureus [1])
CN[C@H](CC(C)C)C(=O)N[C@H]1C(=O)N[C@@H](CC(N)=O)C(=O)N[C@H]2C(=O)N[C@H]3C(=O)N[C@H](C(=O)N[C@H](C(=O)O)c4cc(O)cc(O)c4-c4cc3ccc4O)[C@H](O)c3ccc(c(Cl)c3)Oc3cc2cc(c3O[C@@H]2O[C@H](CO)[C@@H](O)[C@H](O)[C@H]2O[C@H]2C[C@](C)(N)[C@H](O)[C@H](C)O2)Oc2ccc(cc2Cl)[C@H]1O [VANCOMYCIN] | 2 µg/mL (≈ 1.38 µM) | – | – | – | – | – | – | – | – | – | – | – | – | –
COc1ccc2cc3[n+](cc2c1OC)CCc1cc2c(cc1-3)OCO2.[Cl-] [BERBERINE CHLORIDE] | 64 µg/mL | 0.5 | 0.75 | 0.375 | 2 | 2 | 1.5 | 0.313 | 0.5 | 0.25 | 2 | 2 | 1.5 | 32 µg/mL
CC1(C)S[C@@H]2[C@H](NC(=O)[C@H](N)c3ccccc3)C(=O)N2[C@H]1C(=O)O [AMPICILLIN] | 64 µg/mL (≈ 183 µM) | – | – | – | – | – | – | – | – | – | – | – | – | –
COS(=O)(=O)[O-].COc1ccc2c(c1OC)C[N+]1(C)CCc3cc4c(cc3C1=C2)OCO4 (stereo not drawn) | 256 µg/mL | 0.375 | 0.5 | 0.25 | 2 | 2 | 1.5 | 0.375 | 0.5 | 0.188 | 2 | 2 | 1.5 | 64 µg/mL
CC[C@H]1OC(=O)[C@H](C)[C@@H](O[C@H]2C[C@@](C)(OC)[C@@H](O)[C@H](C)O2)[C@H](C)[C@@H](O[C@@H]2O[C@H](C)C[C@H](N(C)C)[C@H]2O)[C@](C)(O)C[C@@H](C)CN(C)[C@H](C)[C@@H](O)[C@]1(C)O [AZITHROMYCIN] | – | – | – | – | – | – | – | – | – | – | – | – | – | 2000 µg/mL (≈ 2670 µM)
C[C@H]1COc2c(N3CCN(C)CC3)c(F)cc3c(=O)c(C(=O)O)cn1c23.C[C@H]1COc2c(N3CCN(C)CC3)c(F)cc3c(=O)c(C(=O)O)cn1c23.O [LEVOFLOXACIN] | 8 µg/mL | – | – | – | – | – | – | – | – | – | – | – | – | 2 µg/mL
